Data on 2 compounds can be found in patent US12409156B2, “Stable aqueous hydroxycarbamide solution” (Nova Bio-Pharma Product Development LTD, priority 2018, dated 2025).

One data set in a line: Rat toxicology studies. The format is in vivo. The settings on record: compared with hydroxycarbamide (hydroxyurea). Here is the method: Importantly, the composition disclosed in U.S. Pat. No. 3,119,866 is only stable as a dry composition, after evaporation of all water. […] After this time unacceptable levels of degradation products are present in the aqueous solution. As a result, it has previously been considered that the use of pH buffers such as potassium citrate and citric acid/sodium citrate to stabilise solutions of hydroxycarbamide is not effective. At temperatures between 2° C. and 8° C., the applicant has discovered that the main degradation product of hydroxycarbamide solutions is carbamoyloxyurea. The International Conference on Harmonisation of Technical Requirements for Registration of Pharmaceuticals for Human Use (ICH) stipulates that the maximum allowable limit for any degradant in a formulation should not exceed 0.15% w/v, at therapeutic doses of hydroxycarbamide in the treatment of sickle cell disease. […] As a result, the European Medicines Agency has now accepted that carbamoyloxyurea contents of up to 0.5% w/v are acceptable.

For a further data set, the system named is six organisms tested. The data set can be described thus: Preservative efficacy study. As for the experimental part:
In parallel to this work, a preservative efficacy study was performed to investigate the effectiveness of the preservative system.

The conditions of data set [1]: cited from earlier work.

With `NC(=O)NOC(N)=O` [carbamoyloxyurea], in “Rat toxicology studies”, the “risk in rat toxicology studies” value is “does not pose a risk over and above hydroxycarbamide”.
`NC(=O)NO` [hydroxycarbamide, Hydroxycarbamide]: the antimicrobial activity result in the data set on six organisms tested is on record as “able to inhibit the growth of six organisms tested”. Further, the “variation of exposure for a given dosing regime” value in data set [1] (adult patients) is given as “approximately five-fold”. The “differences in exposure at the same mg/kg dose” value in data set [1] (paediatric patients) is given as “two to three-fold”.
